Read-outs that look alike come from different tables or passages of the source. Starred links: 1 amine or outer side, 2 acyl side, 3 side chain; linkers in the order of their positions; H or OH if unused. Residues, ends and D or L forms follow the SMILES beside them. Groups on a side chain read outwards from the residue. *: point of attachment. C18 diacid = O=C(O)CCCCCCCCCCCCCCCCC(=O)*; γGlu = O=C(O)[C@H](CCC(=O)[*:2])N[*:1]; Stearoyl = CCCCCCCCCCCCCCCCCC(=O)*; Palmitoyl = CCCCCCCCCCCCCCCC(=O)*; AEEA = NCCOCCOCC(=O)O
Target: T1, human GLP-1 receptor (Homo sapiens, UniProt P43220)
T1 construct: expressed in transfected cells; host or cells: BHK cells, clone BHK-467-12A; plasma membrane preparation
T1 sequence (P43220 24-463): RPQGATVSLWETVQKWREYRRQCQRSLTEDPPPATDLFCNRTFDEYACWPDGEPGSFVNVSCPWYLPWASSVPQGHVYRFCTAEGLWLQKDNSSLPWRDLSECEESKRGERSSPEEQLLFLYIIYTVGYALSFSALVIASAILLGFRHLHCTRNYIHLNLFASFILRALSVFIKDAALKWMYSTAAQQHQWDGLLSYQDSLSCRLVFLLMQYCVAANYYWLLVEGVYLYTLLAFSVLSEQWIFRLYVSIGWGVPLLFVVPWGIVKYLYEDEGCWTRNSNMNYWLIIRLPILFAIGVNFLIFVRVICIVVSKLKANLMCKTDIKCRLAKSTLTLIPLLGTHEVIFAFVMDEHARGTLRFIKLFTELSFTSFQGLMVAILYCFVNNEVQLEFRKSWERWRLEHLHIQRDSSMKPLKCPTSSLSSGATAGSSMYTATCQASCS
Experiment: Functional receptor assay: cAMP formation in plasma membranes of BHK cells expressing the cloned human GLP-1 receptor (GLP1cAMPma)
Type: biochemical
Description: The term “insulinotropic agent” as used herein means a compound which is an agonist of the human GLP-1 receptor, i.e. a compound which stimulates the formation of cAMP in a suitable medium containing the human GLP-1 receptor (one such medium disclosed below). The potency of an insulinotropic agent is determined by calculating the EC50 value from the dose-response curve as described below.
The cells were washed twice in phosphate buffered saline and harvested with Versene. Plasma membranes were prepared from the cells by homogenisation with an Ultraturrax in buffer 1 (20 mM HEPES-Na, 10 mM EDTA, pH 7.4). The homogenate was centrifuged at 48,000×g for 15 min at 4° C. The pellet was suspended by homogenization in buffer 2 (20 mM HEPES-Na, 0.1 mM EDTA, pH 7.4), then centrifuged at 48,000×g for 15 min at 4° C. The washing procedure was repeated one more time. The final pellet was suspended in buffer 2 and used immediately for assays or stored at −80° C.
The functional receptor assay was carried out by measuring cyclic AMP (cAMP) as a response to stimulation by the insulinotropic agent. cAMP formed was quantified by the AlphaScreen™ cAMP Kit (Perkin Elmer Life Sciences). Incubations were carried out in half-area 96-well microtiter plates in a total volume of 50 μL buffer 3 (50 mM Tris-HCl, 5 mM HEPES, 10 mM MgCl2, pH 7.4) and with the following additions: 1 mM ATP, 1 μM GTP, 0.5 mM 3-isobutyl-1-methylxanthine (IBMX), 0.01% Tween-20, 0.1% BSA, 6 μg membrane preparation, 15 μg/mL acceptor beads, 20 μg/mL donor beads preincubated with 6 nM biotinyl-cAMP. […] GTP was freshly prepared for each experiment. The plate was incubated in the dark with slow agitation for three hours at room temperature followed by counting in the Fusion™ instrument (Perkin Elmer Life Sciences). Concentration-response curves were plotted for the individual compounds and EC50 values estimated using a four-parameter logistic model with Prism v. 4.0 (GraphPad, Carlsbad, Calif.).

[1] = cAMP, membranes with human GLP-1 receptor, mean value, read-out: GLP1cAMPma (3693) [EC50 (nM)] Mean Value

Row | SMILES | EC50 | EC50 [1]
1 | CCCCCCCCCCCCCCCC(=O)N[C@@H](CCC(=O)NCCOCCOCC(=O)NCCCC[C@H](NC(=O)[C@H](CO)NC(=O)[C@H](CO)NC(=O)[C@@H]1CCCN1C(=O)CNC(=O)CNC(=O)[C@H](CC(N)=O)NC(=O)[C@H](CCCNC(=N)N)NC(=O)[C@H](CC(C)C)NC(=O)[C@H](Cc1c[nH]c2ccccc12)NC(=O)[C@H](CCC(=O)O)NC(=O)[C@@H](NC(=O)[C@H](Cc1ccccc1)NC(=O)[C@H](CC(C)C)NC(=O)[C@H](CCCNC(=N)N)NC(=O)[C@@H](NC(=O)[C@H](C)NC(=O)[C@H](CCC(=O)O)NC(=O)[C@H](CCC(=O)O)NC(=O)[C@H](CCC(=O)O)NC(=O)[C@H](CC(C)C)NC(=O)[C@H](CCC(N)=O)NC(=O)[C@H](CCCNC(=N)N)NC(=O)[C@H](CO)NC(=O)[C@H](CC(C)C)NC(=O)[C@H](CC(=O)O)NC(=O)[C@H](CO)NC(=O)[C@@H](NC(=O)[C@H](Cc1ccccc1)NC(=O)[C@@H](NC(=O)CNC(=O)[C@H](CCC(=O)O)NC(=O)CNC(=O)[C@@H](N)Cc1c[nH]cn1)[C@@H](C)O)[C@@H](C)O)C(C)C)[C@@H](C)CC)C(=O)N[C@@H](C)C(=O)N1CCC[C@H]1C(=O)N1CCC[C@H]1C(=O)N1CCC[C@H]1C(=O)N[C@@H](CO)C(N)=O)C(=O)O [Example 7, N-ε^34-[2-(2-[2-[4-hexadecanoylamino-4(S)-carboxybutyrylamino]ethoxy]ethoxy)acetyl][Arg^12,27,Leu^14,Lys^34] Exendin-4(1-39)amide] (H-HGEGTFTSDLSRQLEEEAVRLFIEWLRNGGPSSK([AEEA-γGlu-Palmitoyl])APPPS-NH2) | 0.012 nM | –
2 | CC[C@H](C)[C@H](NC(=O)[C@H](Cc1ccccc1)NC(=O)[C@H](CC(C)C)NC(=O)[C@H](CCCCNC(=O)COCCOCCNC(=O)COCCOCCNC(=O)CCCCCCCCCCCCCCCCC(=O)O)NC(=O)[C@@H](NC(=O)[C@H](C)NC(=O)[C@H](CCC(=O)O)NC(=O)[C@H](CCC(=O)O)NC(=O)[C@H](CCC(=O)O)NC(=O)[C@H](CC(C)C)NC(=O)[C@H](CCC(N)=O)NC(=O)[C@H](CCCNC(=N)N)NC(=O)[C@H](CO)NC(=O)[C@H](CC(C)C)NC(=O)[C@H](CC(=O)O)NC(=O)[C@H](CO)NC(=O)[C@@H](NC(=O)[C@H](Cc1ccccc1)NC(=O)[C@@H](NC(=O)CNC(=O)[C@H](CCC(=O)O)NC(=O)CNC(=O)[C@@H](N)Cc1c[nH]cn1)[C@@H](C)O)[C@@H](C)O)C(C)C)C(=O)N[C@@H](CCC(=O)O)C(=O)N[C@@H](Cc1c[nH]c2ccccc12)C(=O)N[C@@H](CC(C)C)C(=O)N[C@@H](CCCNC(=N)N)C(=O)N[C@@H](CCC(N)=O)C(=O)NCC(=O)NCC(=O)N1CCC[C@H]1C(=O)N[C@@H](CO)C(=O)N[C@@H](CO)C(=O)NCC(=O)N[C@@H](C)C(=O)N1CCC[C@H]1C(=O)N1CCC[C@H]1C(=O)N1CCC[C@H]1C(=O)N[C@@H](CO)C(N)=O [Example 12, N-ε^20-(2-(2-(2-(2-(2-(2-(17-carboxyheptadecanoylamino)ethoxy)ethoxy)acetylamino)ethoxy)ethoxy)acetyl)[Arg12,Leu^14,Arg^27,Gln^28,Lys^20]Exendin-4 (1-39)amide] (H-HGEGTFTSDLSRQLEEEAVK([AEEA-AEEA-C18 diacid])LFIEWLRQGGPSSGAPPPS-NH2; N-terminus assumed) | – | 5.45 nM
3 | CCCCCCCCCCCCCCCCCC(=O)N[C@@H](CCC(=O)NCCOCCOCC(=O)NCCOCCOCC(=O)NCCCC[C@H](NC(=O)[C@@H](NC(=O)[C@H](C)NC(=O)[C@H](CCC(=O)O)NC(=O)[C@H](CCC(=O)O)NC(=O)[C@H](CCC(=O)O)NC(=O)[C@H](CC(C)C)NC(=O)[C@H](CCC(N)=O)NC(=O)[C@H](CCCNC(=N)N)NC(=O)[C@H](CO)NC(=O)[C@H](CC(C)C)NC(=O)[C@H](CC(=O)O)NC(=O)[C@H](CO)NC(=O)[C@@H](NC(=O)[C@H](Cc1ccccc1)NC(=O)[C@@H](NC(=O)CNC(=O)[C@H](CCC(=O)O)NC(=O)CNC(=O)[C@@H](N)Cc1c[nH]cn1)[C@@H](C)O)[C@@H](C)O)C(C)C)C(=O)N[C@@H](CC(C)C)C(=O)N[C@@H](Cc1ccccc1)C(=O)N[C@H](C(=O)N[C@@H](CCC(=O)O)C(=O)N[C@@H](Cc1c[nH]c2ccccc12)C(=O)N[C@@H](CC(C)C)C(=O)N[C@@H](CCCNC(=N)N)C(=O)N[C@@H](CCC(N)=O)C(=O)NCC(=O)NCC(=O)N1CCC[C@H]1C(=O)N[C@@H](CO)C(=O)N[C@@H](CO)C(=O)NCC(=O)N[C@@H](C)C(=O)N1CCC[C@H]1C(=O)N1CCC[C@H]1C(=O)N1CCC[C@H]1C(=O)N[C@@H](CO)C(N)=O)[C@@H](C)CC)C(=O)O [Example 15] (H-HGEGTFTSDLSRQLEEEAVK([AEEA-AEEA-γGlu-Stearoyl])LFIEWLRQGGPSSGAPPPS-NH2) | – | 0.044 nM
4 | CCCCCCCCCCCCCCCCCC(=O)N[C@@H](CCC(=O)NCCOCCOCC(=O)NCCOCCOCC(=O)NCCCC[C@H](NC(=O)[C@@H]1CCCN1C(=O)CNC(=O)CNC(=O)[C@H](CCCNC(=N)N)NC(=O)[C@@H](NC(=O)[C@H](CC(C)C)NC(=O)[C@H](Cc1c[nH]c2ccccc12)NC(=O)[C@H](CCC(=O)O)NC(=O)[C@@H](NC(=O)[C@H](Cc1ccccc1)NC(=O)[C@H](CC(C)C)NC(=O)[C@H](CCCNC(=N)N)NC(=O)[C@@H](NC(=O)[C@H](C)NC(=O)[C@H](CCC(=O)O)NC(=O)[C@H](CCC(=O)O)NC(=O)[C@H](CCC(=O)O)NC(=O)[C@H](CC(C)C)NC(=O)[C@H](CCC(N)=O)NC(=O)[C@H](CCCNC(=N)N)NC(=O)[C@H](CO)NC(=O)[C@H](CC(C)C)NC(=O)[C@H](CC(=O)O)NC(=O)[C@H](CO)NC(=O)[C@@H](NC(=O)[C@H](Cc1ccccc1)NC(=O)[C@@H](NC(=O)CNC(=O)[C@H](CCC(=O)O)NC(=O)CNC(=O)[C@@H](N)Cc1c[nH]cn1)[C@@H](C)O)[C@@H](C)O)C(C)C)[C@@H](C)CC)C(C)C)C(=O)N[C@@H](CO)C(=O)NCC(=O)N[C@@H](C)C(=O)N1CCC[C@H]1C(=O)N1CCC[C@H]1C(=O)N1CCC[C@H]1C(=O)N[C@@H](CO)C(N)=O)C(=O)O [Example 17, N-ε^32-(2-(2-(2-(2-(2-(2-(4-(Octadecanoylamino)-4(S)-carboxybutyrylamino))ethoxy)ethoxy)acetylamino)ethoxy)ethoxy)acetyl[Arg^12,Leu^14,Val^27,Arg^28,Lys^32]Exendin-4-(1-39)amide] (H-HGEGTFTSDLSRQLEEEAVRLFIEWLVRGGPK([AEEA-AEEA-γGlu-Stearoyl])SGAPPPS-NH2; N-terminus assumed) | 0.025 nM | –
5 | CCCCCCCCCCCCCCCC(=O)N[C@@H](CCC(=O)NCCOCCOCC(=O)NCCOCCOCC(=O)NCCCC[C@H](NC(=O)[C@@H](NC(=O)[C@H](C)NC(=O)[C@H](CCC(=O)O)NC(=O)[C@H](CCC(=O)O)NC(=O)[C@H](CCC(=O)O)NC(=O)[C@H](CC(C)C)NC(=O)[C@H](CCC(N)=O)NC(=O)[C@H](CCCNC(=N)N)NC(=O)[C@H](CO)NC(=O)[C@H](CC(C)C)NC(=O)[C@H](CC(=O)O)NC(=O)[C@H](CO)NC(=O)[C@@H](NC(=O)[C@H](Cc1ccccc1)NC(=O)[C@@H](NC(=O)CNC(=O)[C@H](CCC(=O)O)NC(=O)CNC(=O)[C@@H](N)Cc1c[nH]cn1)[C@@H](C)O)[C@@H](C)O)C(C)C)C(=O)N[C@@H](CC(C)C)C(=O)N[C@@H](Cc1ccccc1)C(=O)N[C@H](C(=O)N[C@@H](CCC(=O)O)C(=O)N[C@@H](Cc1c[nH]c2ccccc12)C(=O)N[C@@H](CC(C)C)C(=O)N[C@@H](CCCNC(=N)N)C(=O)N[C@@H](CCC(N)=O)C(=O)NCC(=O)NCC(=O)N1CCC[C@H]1C(=O)N[C@@H](CO)C(=O)N[C@@H](CO)C(=O)NCC(=O)N[C@@H](C)C(=O)N1CCC[C@H]1C(=O)N1CCC[C@H]1C(=O)N1CCC[C@H]1C(=O)N[C@@H](CO)C(N)=O)[C@@H](C)CC)C(=O)O [Example 18, N-ε^20-2-(2-(2-(2-(2-(2-(4-(Hexadecanoylamino)-4(S)-carboxybutyrylamino)ethoxy)ethoxy)acetylamino)ethoxy)ethoxy)acetyl[Arg^12,27,Leu^14,Lys^20,Gln^28]Exendin-4-(1-39)-peptide amide] (H-HGEGTFTSDLSRQLEEEAVK([AEEA-AEEA-γGlu-Palmitoyl])LFIEWLRQGGPSSGAPPPS-NH2; N-terminus assumed) | – | 0.033 nM
